Test results reported in patent US20030158184A1, “Nitrosated and nitrosylated phosphodiesterase inhibitor compounds, compositions and their uses” (priority 2001, published 2003).

Tested on: human corpus cavernosum tissue
Details: doses of 10 μM and 30 μM; compared with equimolar dose of dipyridamole; tissue contracted with phenylephrine 7×10^−7 M; 0% = phenylephrine contraction, −100% = tone after papaverine 10^−4 M; FIG. 40
Protocol: The tissue was maintained in a chilled Krebs-bicarbonate solution prior to assay. The tissue was cut into strips of 0.3×0.3×1 cm and suspended in organ chambers for isometric tension measurement. Tissues were incrementally stretched until optimal isometric tension for contraction was obtained. […] At the end of the experiment papaverine (10^−4 M) is added to obtain maximal relaxation. […] Data are expressed as the percent loss in tone from the phenylephrine-induced contraction (0% =phenylephrine contraction; −100%=tone after the administration of papaverine).

Which “relaxation of the phenylephrine-induced contraction (percent loss in tone from the phenylephrine-induced contraction)” value does the source give for CC(C)(CC(=O)OCCN(CCOC(=O)CC(C)(C)SN=O)c1nc(N2CCCCC2)c2nc(N(CCOC(=O)CC(C)(C)SN=O)CCOC(=O)CC(C)(C)SN=O)nc(N3CCCCC3)c2n1)SN=O [Example 1, 2.6-bis(diethyl(3-methyl-3(nitrosothiol)butyric acid ester)amino)-4.8-dipipendinopyrimido-[5,4d]-pyrimidine] here?
Its value is “more efficacious”.
